Measured values: US20240239854A1, “ANTIMICROBIAL PEPTIDES AND MODIFICATIONS THEREOF” (Donald Danforth Plant Science Center, priority 2022, published 2024)
Values after ≈ are worked out from the molar mass of the structure shown. Like-named read-outs stand apart in the source and are kept apart here. Positions of bridges follow the written chain, without caps; N, C: chain ends. Residues, ends and D or L forms follow the SMILES beside them. No end group written: not given here.

Assays:
[1] = tested on: F. graminearum
[2] = tested on: Alternaria alternata; test: 96-well plate antifungal MIC, resazurin cell viability (Example 4); assay type: cell-based; conditions: Table 19; unit not given, peptide concentrations in μM
[3] = tested on: Cercospora sojina; test: as above; assay type: cell-based; conditions: Table 19; unit not given, peptide concentrations in μM
[4] = tested on: Colletotrichum gloeosporioides; test: as above; assay type: cell-based; conditions: Table 19; unit not given, peptide concentrations in μM
[5] = tested on: B. cinerea; test: Semi-in planta drop inoculation assay on detached leaves of N. benthamiana, gray mold (Example 4); assay type: in vivo; conditions: for Reduction of gray mold symptoms at 1.5 μM / Reduction of gray mold symptoms at 3 and 6 μM: drop inoculation assay; for Reduction of gray mold symptoms at 1.5 μM: peptide 1.5 μM; for Reduction of gray mold symptoms at 3 and 6 μM: peptide 3 μM and 6 μM
[6] = tested on: F. oxysporum; test: Antifungal MIC assay in SFM culture media (Example 1); assay type: cell-based; conditions: Table 2; SFM culture media
[7] = tested on: B. cinerea
[8] = tested on: Botrytis cinerea T-4; conditions: for MIC (μM) SFM: Table 18, SFM; for MIC (μM) (SFM + 2 mM CaCl2): Table 18, SFM + 2 mM CaCl2; for MIC (μM) (SFM + 100 mM KCl): Table 18, SFM + 100 mM KCl; for MIC (μM) (SFM + 100 mM NaCl): Table 18, SFM + 100 mM NaCl

## C[C@@H](O)[C@H](NC(=O)[C@H](CS)NC(=O)[C@H](Cc1ccccc1)NC(=O)[C@H](CS)NC(=O)[C@H](CCCNC(=N)N)NC(=O)[C@H](CCCNC(=N)N)NC(=O)[C@H](CCCNC(=N)N)NC(=O)[C@H](Cc1ccccc1)NC(=O)CNC(=O)[C@H](CCCNC(=N)N)NC(=O)[C@H](CS)NC(=O)[C@H](CCCNC(=N)N)NC(=O)CN)C(=O)N[C@H](C(=O)N[C@@H](Cc1c[nH]cn1)C(=O)N[C@@H](CS)C(N)=O)[C@@H](C)O [GMA4AC] (H-GRCRGFRRRCFCTTHC-NH2; N-terminus and C-terminus assumed)
[1]
  MIC (μM) Fusarium graminearum: 6 µM (≈ 11.8 µg/mL)

## C[C@H](NC(=O)CN)C(=O)N[C@@H](CS)C(=O)N[C@@H](Cc1c[nH]cn1)C(=O)N[C@@H](CCCNC(=N)N)C(=O)N[C@@H](CCC(N)=O)C(=O)NCC(=O)N[C@@H](Cc1ccccc1)C(=O)NCC(=O)N[C@@H](Cc1ccccc1)C(=O)N[C@@H](C)C(=O)N[C@@H](CS)C(=O)N[C@@H](Cc1ccccc1)C(=O)N[C@@H](CS)C(=O)N[C@@H](Cc1ccc(O)cc1)C(=O)N[C@@H](CCCCN)C(=O)N[C@@H](CCCCN)C(=O)N[C@@H](CS)C(N)=O [GMA5CA_WT] (H-GACHRQGFGFACFCYKKC-NH2)
[2]
  In vitro antifungal activity (MIC) Alternaria alternata: 6
[3]
  In vitro antifungal activity (MIC) Cercospora sojina: 12
[4]
  In vitro antifungal activity (MIC) Colletotrichum gloeosporioides: >12

## CC(C)C[C@H](NC(=O)[C@H](CS)NC(=O)[C@H](C)NC(=O)CN)C(=O)N[C@@H](CCCCN)C(=O)N[C@@H](CC(N)=O)C(=O)N[C@@H](CCCNC(=N)N)C(=O)N[C@@H](Cc1c[nH]cn1)C(=O)N[C@@H](CO)C(=O)N[C@@H](CCCCN)C(=O)N[C@@H](Cc1c[nH]cn1)C(=O)N[C@@H](Cc1ccc(O)cc1)C(=O)NCC(=O)N[C@@H](CS)C(=O)N[C@@H](Cc1ccc(O)cc1)C(=O)N[C@@H](CS)C(=O)N[C@@H](Cc1ccc(O)cc1)C(=O)N[C@@H](Cc1ccc(O)cc1)C(=O)N[C@@H](CCCNC(=N)N)C(=O)N[C@@H](Cc1c[nH]cn1)C(=O)N[C@@H](CS)C(=O)N[C@@H](Cc1ccc(O)cc1)C(N)=O [GMAOe1C_WT] (H-GACLKNRHSKHYGCYCYYRHCY-NH2; N-terminus assumed)
[5]; detached N. benthamiana leaves, peptide 1.5, 3 and 6 μM, 48 h after inoculation
  Reduction of gray mold disease symptoms (lesion sizes): only effective at 6 μM

## C[C@@H](O)[C@H](NC(=O)[C@H](CS)NC(=O)[C@H](Cc1ccccc1)NC(=O)[C@H](CS)NC(=O)[C@H](CCCNC(=N)N)NC(=O)[C@H](CCCNC(=N)N)NC(=O)[C@H](CCCNC(=N)N)NC(=O)[C@H](Cc1ccccc1)NC(=O)CNC(=O)[C@H](CCCNC(=N)N)NC(=O)[C@H](CS)NC(=O)[C@H](CCCNC(=N)N)NC(=O)CNC(=O)CN)C(=O)N[C@H](C(=O)N[C@@H](Cc1c[nH]cn1)C(=O)N[C@@H](CS)C(N)=O)[C@@H](C)O [GMA4C_AC] (H-GGRCRGFRRRCFCTTHC-NH2; N-terminus assumed)
[6]
  F. oxysporum MIC: 6 μuM
[7]; B. cinerea, 100 mM NaCl or 100 mM KCl
  Retention of antifungal activity in presence of cations: retain their antifungal activity
[7]; Table 4, B. cinerea, SFM + 2 mM CaCl2
  SFM + 2 mM CaCl2 MIC: >6 (a few μM
[7]; Table 10, SFM + 2 mM CaCl2, values repeat Table 4 (B. cinerea)
  SFM + 2 mM CaCl2 MIC: >6 (a μM
[1]
  F. graminearum MIC: 3 µM
  MIC (μM) Fusarium graminearum: 3 µM (≈ 6.05 µg/mL)
  MIC Values (μM) against F. graminearum: 6 µM (≈ 12.1 µg/mL)

## CC(C)C[C@@H]1NC(=O)[C@@H](NC(=O)[C@H](C)NC(=O)CN)CSSC[C@@H](C(=O)N[C@@H](Cc2ccc(O)cc2)C(N)=O)NC(=O)[C@H](Cc2c[nH]cn2)NC(=O)[C@H](CCCNC(=N)N)NC(=O)[C@H](Cc2ccc(O)cc2)NC(=O)[C@H](Cc2ccc(O)cc2)NC(=O)[C@H](Cc2c[nH]c3ccccc23)NC(=O)[C@H](Cc2ccccc2)NC(=O)[C@H](Cc2c[nH]c3ccccc23)NC(=O)CNC(=O)[C@H](Cc2ccc(O)cc2)NC(=O)[C@H](Cc2c[nH]cn2)NC(=O)[C@H](CCCCN)NC(=O)[C@H](CO)NC(=O)[C@H](Cc2c[nH]cn2)NC(=O)[C@H](CCCNC(=N)N)NC(=O)[C@H](CC(N)=O)NC(=O)[C@H](CCCCN)NC1=O [GMAOe1C_V3] (H-GACLKNRHSKHYGWFWYYRHCY-NH2; disulfide 3-21; N-terminus assumed)
[5]
  Reduction of gray mold symptoms at 1.5 μM: more effective than GMAOe1C_V4 or GMAOe1C_WT
[8]
  MIC (μM) SFM: 1.5 µM (≈ 4.31 µg/mL)
  MIC (μM) (SFM + 2 mM CaCl2): 3 to 6 µM
  MIC (μM) (SFM + 100 mM KCl): 6 to 12 µM
  MIC (μM) (SFM + 100 mM NaCl): 2 to 3 µM

## CC[C@H](C)[C@@H]1NC(=O)[C@H](CCCNC(=N)N)NC(=O)[C@@H](NC(=O)[C@H](CCCNC(=N)N)NC(=O)CNC(=O)[C@@H](N)CO)CSSC[C@@H](C(N)=O)NC(=O)[C@H](CC(N)=O)NC(=O)[C@H](CCCCN)NC(=O)[C@H]([C@@H](C)O)NC(=O)[C@H](Cc2c[nH]c3ccccc23)NC(=O)[C@H](Cc2ccccc2)NC(=O)[C@H](Cc2c[nH]c3ccccc23)NC(=O)[C@H](CCCNC(=N)N)NC(=O)[C@H](Cc2ccccc2)NC(=O)[C@H](CC(C)C)NC1=O [GMA1C_V2] (H-SGRCRILFRWFWTKNC-NH2; disulfide 4-16; N-terminus assumed)
[5]
  Reduction of gray mold symptoms at 1.5 μM: more effective than GMA1C_V1
  Reduction of gray mold symptoms at 3 and 6 μM: completely abrogated gray mold symptoms
[8]
  MIC (μM) SFM: 1.5 to 3 µM
  MIC (μM) (SFM + 2 mM CaCl2): 3 µM
  MIC (μM) (SFM + 100 mM KCl): >12 µM
  MIC (μM) (SFM + 100 mM NaCl): 3 µM

## CC[C@H](C)[C@H](NC(=O)[C@H](CCCNC(=N)N)NC(=O)[C@H](CS)NC(=O)[C@H](CCCNC(=N)N)NC(=O)CNC(=O)[C@@H](N)CO)C(=O)N[C@@H](CC(C)C)C(=O)N[C@@H](Cc1ccccc1)C(=O)N[C@@H](CCCNC(=N)N)C(=O)N[C@@H](CS)C(=O)N[C@@H](Cc1ccccc1)C(=O)N[C@@H](CS)C(=O)N[C@H](C(=O)N[C@@H](CCCCN)C(=O)N[C@@H](CC(N)=O)C(=O)N[C@@H](CS)C(N)=O)[C@@H](C)O [GMA1C_V1] (H-SGRCRILFRCFCTKNC-NH2; N-terminus assumed)
[5]
  Reduction of gray mold symptoms at 3 and 6 μM: failed to reduce disease symptoms

## GRCRGFRRRCFCTTHC-NH2 (cysteine pairing not given here) [GMA4AC]
[2]
  In vitro antifungal activity (MIC) Alternaria alternata: >12
[3]
  In vitro antifungal activity (MIC) Cercospora sojina: >12
[4]
  In vitro antifungal activity (MIC) Colletotrichum gloeosporioides: >12

## CC[C@H](C)[C@H](NC(=O)[C@H](CCCNC(=N)N)NC(=O)[C@@H](NC(=O)[C@H](Cc1c[nH]c2ccccc12)NC(=O)[C@H](Cc1ccccc1)NC(=O)[C@H](Cc1c[nH]c2ccccc12)NC(=O)[C@H](CCCNC(=N)N)NC(=O)[C@H](CCCNC(=N)N)NC(=O)[C@H](CCCNC(=N)N)NC(=O)[C@H](Cc1ccccc1)NC(=O)CNC(=O)[C@H](CCCCN)NC(=O)[C@H](CS)NC(=O)[C@H](CCCNC(=N)N)NC(=O)CNC(=O)CN)[C@@H](C)O)C(=O)N[C@@H](CS)C(N)=O [GMA4C_V6A] (H-GGRCKGFRRRWFWTRIC-NH2; N-terminus assumed)
[7]
  B. cinerea MIC: 0.75 µM
  MIC (μM) Botrytis cinerea: 0.75 µM (≈ 1.64 µg/mL)
  MIC Values (μM) against B. cinerea: 0.75 µM (≈ 1.64 µg/mL)
  SFM + 2 mM CaCl2 MIC: 3 to 6 µM
  SFM + 100 mM KCl MIC: 1.5 to 3 µM
  SFM + 100 mM NaCl MIC: 0.75 to 1.5 µM
  SFM MIC: 1.5 µM
[7]; in vitro, low cationic conditions, B. cinerea
  Antifungal activity relative to the wild-type GMA4C_AC control: four-fold increase
